Data on 22 molecules can be found in US12077534B2, “Aza-heterobicyclic inhibitors of MAT2A and methods of use for treating cancer” (Les Laboratoires Servier SAS, priority 2018, dated 2024).

Assay [1] concerns MAT2A activity (SAM) in HCT116 cells with deleted MTAP gene. Description: Cellular assay of target engagement (SAM) by LC-MS/MS. It counts as cell-based. The settings on record: Homo sapiens, HCT-116; HCT116 MTAP −/−, 72 hrs; read-out: Cell 72 h SAM Inhibition (MTAP −/−). Summed up:
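HCT116 MTAP-deleted cells treated with 10-point 3-fold DMSO serial dilutions of compound for 72 hrs at 37° C. Cells lysed in cold 80% methanol/acetic acid extraction buffer with d3-SAM internal standard; SAM quantified by LC-MS/MS (MRM m/z 399.2→250.1).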

The target in assay [2] is T1, MAT2A homodimer (Homo sapiens, UniProt P31153).
T1 construct: inferred from Ni sepharose purification and imidazole elution; made in house; host or cells: SF9 insect cells, recombinant baculovirus (Bac to Bac, pFASTBAC1)
T1 sequence (P31153 whole entry): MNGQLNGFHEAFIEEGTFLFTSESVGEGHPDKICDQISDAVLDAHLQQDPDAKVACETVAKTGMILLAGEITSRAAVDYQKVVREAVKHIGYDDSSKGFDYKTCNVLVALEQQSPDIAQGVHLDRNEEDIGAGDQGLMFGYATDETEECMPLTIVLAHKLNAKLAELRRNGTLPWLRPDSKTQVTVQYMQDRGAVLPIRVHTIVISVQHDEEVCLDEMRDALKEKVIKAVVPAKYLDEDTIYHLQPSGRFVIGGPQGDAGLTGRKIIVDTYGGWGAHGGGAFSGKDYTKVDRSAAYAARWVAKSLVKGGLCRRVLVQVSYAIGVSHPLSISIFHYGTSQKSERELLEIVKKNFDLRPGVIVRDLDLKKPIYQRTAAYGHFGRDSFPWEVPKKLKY
The experiment in a line: MAT2A biochemical assay (phosphate release, PiColorLock Gold). The settings on record: recombinant MAT2A homodimer, 60 min pre-incubation, 25° C.; read-out: Enzyme Inhibition. The gist of the method: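 Baculovirus/Sf9-expressed, Ni-purified MAT2A homodimer (4 µg/mL in pH 8.0 Tris/KCl/MgCl2 buffer) preincubated 60 min at 25 °C with compound (2% DMSO final). Substrate mix of 500 µM ATP and 400 µM L-methionine added; 60 min at 25 °C; released phosphate quantified colorimetrically against a phosphate standard curve.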

Assay [3] deals with HCT116 MTAP−/−. Description: Inhibition of cellular proliferation (Cell Titer Glo), HCT116 MTAP-/-. It counts as cell-based. The settings on record: Homo sapiens, HCT-116, 96 h, 4 days, read-out: 4 Day Relative Growth Inhibition (MTAP −/−). Summed up:
(§1)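 Isogenic HCT116 MTAP+/+ and MTAP−/− cells treated 24 h after plating with 10-point 3-fold dilutions, then grown 4 days at 37 °C/5% CO2. ATP content read by Cell Titer Glo luminescence, blank-subtracted and normalized to 0.2% DMSO control, plotted as percent proliferation change versus log molar concentration.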

Assay [4] relates to HCT116 MTAP+/+. The experiment in a line: Inhibition of cellular proliferation (Cell Titer Glo), HCT116 MTAP+/+. To be noted: Homo sapiens, HCT-116, 96 h, 4 days, read-out: 4 Day Relative Growth Inhibition (MTAP +/+). In kind it is cell-based. The gist of the method:
as §1

With `Cn1cc2cc(-n3nc4ccc(OCC(F)F)nc4c(-c4ccncc4)c3=O)ccc2n1` [Example 134], the IC50 is 100 to 1000 nM in assay [1], below 100 nM in assay [2], at least 1000 nM in assay [3] and at least 1000 nM in assay [4].
As for `CCCOc1ccc2nn(-c3ccc4nn(C)cc4c3)c(=O)c(-c3ccc(OC(F)F)cc3)c2n1` [Example 111], the IC50 in assay [1] was below 100 nM; in assay [2], below 100 nM; in assay [3] it was below 100 nM; in assay [4], at least 1000 nM.
As for `[2H]C([2H])([2H])C([2H])([2H])Nc1ccc2nn(-c3ccc4nn(C)cc4c3)c(=O)c(-c3ccc(C)nc3)c2n1` [Example 323], the IC50 in assay [1], in assay [2], in assay [3] and in assay [4] was below 100 nM throughout.
Take `[2H]C([2H])([2H])Oc1ccc(-c2c(=O)n(-c3ccc4nn(C)cc4c3)nc3ccc(OCC(F)F)nc23)cc1` [Example 108]: the IC50 in assay [1] is below 100 nM; in assay [2] it was below 100 nM; in assay [3], below 100 nM; in assay [4] it was at least 1000 nM.
With `CC(C)Oc1ccc2nn(-c3ccc4ncsc4c3)c(=O)c(-c3ccc(OC(F)F)cc3)c2n1` [Example 146], the IC50 in assay [1] is below 100 nM; in assay [2] it was below 100 nM; in assay [3], below 100 nM; in assay [4] it was at least 1000 nM.
For `CCOc1ccc2nn(-c3ccc4nn(C)cc4c3)c(=O)c(-c3ccc(OC)cc3)c2n1` [Example 115], the IC50 in assay [1] was below 100 nM; in assay [2], below 100 nM; in assay [3], below 100 nM; in assay [4], 100 to 1000 nM.
As for `O=c1c(-c2ccc(OC(F)F)cc2)c2nc(OCC(F)F)ccc2nn1-c1ccc2nnccc2c1` [Example 176], the IC50 in assay [1] is below 100 nM; in assay [2], below 100 nM; in assay [3], 100 to 1000 nM; in assay [4], 100 to 1000 nM.
On to `Cn1cc2cc(-n3nc4ccc(OCC(F)F)nc4c(-c4ccc5[nH]ccc5c4)c3=O)ccc2n1` [Example 150], for which the IC50 in assay [1] is below 100 nM; in assay [2], below 100 nM; in assay [3], below 100 nM; in assay [4], at least 1000 nM.
On to `O=c1c(-c2ccc(OC(F)F)cc2)c2nc(OCC(F)F)ccc2nn1-c1cn[nH]c1` [Example 193], for which the IC50 in assay [1] is 100 to 1000 nM; in assay [2], below 100 nM; in assay [3], 100 to 1000 nM; in assay [4] it was at least 1000 nM.
Regarding `Cn1cc2cc(-n3nc4cc(F)c(OCC(F)F)nc4c(-c4ccc(OC(F)F)cc4)c3=O)ccc2n1` [Example 194, 6-(2,2-difluoroethoxy)-4-(4-(difluoromethoxy)phenyl)-7-fluoro-2-(2-methyl-2H-indazol-5-yl)pyrido[3,2-c]pyridazin-3(2H)-one], the IC50 was 100 to 1000 nM in assay [1], below 100 nM in assay [2], below 100 nM in assay [3] and at least 1000 nM in assay [4].
For `CN1CCOc2ccc(-n3nc4ccc(OCC(F)F)nc4c(-c4ccc(OC(F)F)cc4)c3=O)cc21` [Example 180], the IC50 is below 100 nM in assay [1], below 100 nM in assay [2], below 100 nM in assay [3] and at least 1000 nM in assay [4].
Take `Cn1cc2cc(-n3nc4ccc(NCC(F)F)nc4c(-c4ccc(C(F)F)nc4)c3=O)ccc2n1` [Example 319]: the IC50 in assay [1] is below 100 nM; in assay [2], below 100 nM; in assay [3] it was below 100 nM; in assay [4], at least 1000 nM.
Take `O=c1c(-c2ccc(OC(F)F)cc2)c2nc(OCC(F)F)ccc2nn1-c1ccc2nccnc2c1` [Example 192]: the IC50 in assay [1] is below 100 nM; in assay [2] it was below 100 nM; in assay [3] it was 100 to 1000 nM; in assay [4], 100 to 1000 nM.
Turning to `O=c1c(-c2ccc(OC(F)F)cc2)c2nc(OCC(F)F)ccc2nn1-c1ccc2ncsc2c1` [Example 169], the IC50 in assay [1], in assay [2], in assay [3] and in assay [4] was below 100 nM each time.
As to `CC(C)Oc1ccc2nn(-c3ccc4nn(C)cc4c3)c(=O)c(-c3ccc(Br)cc3)c2n1` [Example 199, 4-(4-bromophenyl)-6-isopropoxy-2-(2-methyl-2H-indazol-5-yl)pyrido[3,2-c]pyridazin-3(2H)-one], the IC50 was below 100 nM in assay [1], below 100 nM in assay [2], below 100 nM in assay [3] and at least 1000 nM in assay [4].
With `[2H]C([2H])([2H])Oc1c2cc(-n3nc4ccc(OCC(F)F)nc4c(-c4ccc(OC(F)F)cc4)c3=O)ccc2nn1C` [Example 175], the IC50 in assay [1] was below 100 nM; in assay [2], below 100 nM; in assay [3], below 100 nM; in assay [4], 100 to 1000 nM.
As to `CN(C)Cc1cc(OCC(F)F)nc2c(-c3ccc(OC(F)F)cc3)c(=O)n(-c3ccc4nn(C)cc4c3)nc12` [Example 211, 6-(2,2-difluoroethoxy)-4-(4-(difluoromethoxy)phenyl)-8-((dimethylamino)methyl)-2-(2-methyl-2H-indazol-5-yl)pyrido[3,2-c]pyridazin-3(2H)-one], the IC50 in assay [1] was 100 to 1000 nM; in assay [2], below 100 nM; in assay [3] it was 100 to 1000 nM; in assay [4] it was at least 1000 nM.
Consider `Cc1ccc(-c2c(=O)n(-c3ccc4nn(C)cc4c3)nc3ccc(NCC(F)F)nc23)cn1` [Example 318], for which the IC50 in assay [1] was below 100 nM; in assay [2], below 100 nM; in assay [3], below 100 nM; in assay [4] it was at least 1000 nM.
With `CCOc1ccc2nn(-c3ccc(OC)cc3)c(=O)c(-c3ccc(C)nc3)c2n1` [Example 112], the IC50 is 100 to 1000 nM in assay [1], below 100 nM in assay [2], 100 to 1000 nM in assay [3] and at least 1000 nM in assay [4].
`O=c1c(-c2ccc(OC(F)F)cc2)c2nc(OCC(F)F)ccc2nn1-c1ccc2nccn2c1` [Example 170]: the IC50 is below 100 nM in assay [1], below 100 nM in assay [2], 100 to 1000 nM in assay [3] and at least 1000 nM in assay [4].
As for `CCNc1ccc2nn(-c3ccc4nn(C)cc4c3)c(=O)c(-c3ccc(C)nc3)c2n1` [Example 305], the IC50 in assay [1] is below 100 nM; in assay [2] it was below 100 nM; in assay [3], below 100 nM; in assay [4] it was at least 1000 nM.
Take `[2H]C([2H])([2H])Oc1ccc(-c2c(=O)n(-c3ccc4nn(C)cc4c3)nc3ccc(OCC(F)F)nc23)cn1` [Example 139]: the IC50 in assay [1] is below 100 nM; in assay [2], below 100 nM; in assay [3], below 100 nM; in assay [4], 100 to 1000 nM.
